These compounds were tested on compound 48/80-induced lethality (assay: Protection of rats from compound 48/80-induced lethality). Conditions: Rattus norvegicus; rats treated subcutaneously or orally 1 hour before compound 48/80 0.5 mg/kg intravenously; 50% of animals protected; survival after 4 hours; read-out: Compound 48/80 lethality test in rats-ED50.
Assay type: in vivo, rat (male, inbred Wistar strain)
Description: Protection of rats from compound […] lethality
Compound 48/80, a mixture of oligomers obtained by condensation of 4-methoxy-N-methylbenzeneethanamine and formaldehyde has been described as a potent histamine releasing agent (Int. Arch. Allergy, 13, 336 (1958)). The protection from compound 48/80-induced lethal circulatory collapse appears to be a simple way of evaluating quantitatively the antihistaminic activity of test compounds. Male rats of an inbred Wistar strain, weighing 240-260 g were used in the experiment. After overnight starvation the rats were transferred to conditioned laboratories (temp.=[…], relative humidity=65±5%). The rats were treated subcutaneously or orally with a test compound or with the solvent (NaCl solution, 0.9%). One hour after treatment there was injected intravenously compound 48/80, freshly dissolved in water, at a dose of 0.5 mg/kg (0.2 ml/100 g of body weight). In control experiments, wherein 250 solvent-treated animals were injected with the standard dose of compound 48/80, not more than 2.8% of the animals survived after 4 hours. Survival after 4 hours is therefore considered to be a safe criterion of a protective effect of drug administration. Said ED50 -values are the values in mg/kg body weight at which the tested compounds protect 50% of the tested animals against compound 48/80-induced lethality.
`CCOCCn1c(NC2CCN(CCc3ccc(OC)cc3)CC2)nc2cccnc21` [Compound 45] gave an ED50 of 0.02 mg/kg.
`CCOCCn1c(NC2CCN(CCc3c(C)nc4ccccn4c3=O)CC2)nc2cccnc21` [Compound 46] was tested, and the ED50 was 0.01 mg/kg.
With `CCOCCn1c(CC2CCN(CCc3ccc(OC)cc3)CC2)nc2cccnc21` [Compound 59] the ED50 was 0.02 mg/kg.
`CCOCCn1c(NC2CCN(CCCC(C)=O)CC2)nc2cccnc21` [Compound 61] gave an ED50 of 0.04 mg/kg.
With `CCOCCn1c(CC2CCN(CCc3c(C)nc4ccccn4c3=O)CC2)nc2cccnc21` [Compound 62] the ED50 was 0.04 mg/kg.
For `CCOCCn1c(NC2CCN(CCCOc3ccc(F)cc3)CC2)nc2cccnc21` [Compound 63], the ED50 was 0.04 mg/kg.
Work on `CCOCCn1c(NC2CCN(CCc3c(C)nc4sccn4c3=O)CC2)nc2cccnc21` [Compound 64] yielded an ED50 of 0.02 mg/kg.
Work on `CCOCCn1c(NC2CCN(CCCC(=O)c3ccc(F)cc3)CC2)nc2cccnc21` [Compound 65] yielded an ED50 of 0.02 mg/kg.
`CCOCCn1c(NC2CCN(CCc3scnc3C)CC2)nc2cccnc21` [Compound 67] was tested, and the ED50 was 0.02 mg/kg.
`CCOCCn1c(NC2CCN(CCn3c(=O)[nH]c4ccccc4c3=O)CC2)nc2cccnc21` [Compound 68] was tested, and the ED50 was 0.04 mg/kg.
For `CCOCCn1c(NC2CCN(CCc3c(C)nc4n(c3=O)CCCC4)CC2)nc2cccnc21` [Compound 70], the ED50 was 0.04 mg/kg.
With `CCOCCn1c(CC2CCN(CCn3c(=O)[nH]c4ccccc43)CC2)nc2cccnc21` [Compound 80] the ED50 was 0.02 mg/kg.
`CCOCCn1c(NC2CCN(CCc3cc4ccccc4oc3=O)CC2)nc2cccnc21` [Compound 82] was tested, and the ED50 was 0.04 mg/kg.
With `CCOCCn1c(NC2CCN(CCSc3ccccc3)CC2)nc2cccnc21` [Compound 100, 3-(2-ethoxyethyl)-N-[1-[2-(phenylthio)ethyl]-4-piperidinyl]-3H-imidazo [4,5-b]-pyridin-2-amine] the ED50 was 0.04 mg/kg.
Work on `CCOCCn1c(NC2CCN(C)CC2)nc2cccnc21` [Compound 108, 3-(2-ethoxyethyl)-N-(1-methyl-4-piperidinyl)-3H-imidazo[4,5-b]pyridin-2-amine] yielded an ED50 of 0.04 mg/kg.
`CCOCCn1c(NC2CCN(CC)CC2)nc2cccnc21` [Compound 115] showed an ED50 of 0.04 mg/kg.
`CCOCCn1c(CC2CCN(C)CC2)nc2cccnc21` [Compound 126] gave an ED50 of 0.04 mg/kg.
With `CCOCCn1c(CC2CCN(CCNc3ncccn3)CC2)nc2cccnc21` [Compound 131, N-[2-[4-[[3-(2-ethoxyethyl)-3H-imidazo[4,5-b]pyridin-2-yl]methyl]-1-piperidinyl]ethyl]-2-pyrimidinamine] the ED50 was 0.02 mg/kg.
In the case of `CCOCCn1c(NC2CCN(CCNc3ncccn3)CC2)nc2cccnc21` [Compound 132, 3-(2-ethoxyethyl)-N-[1-[2-(2-pyrimidinylamino)ethyl]-4-piperidinyl]-3H-imidazo[4,5-b]pyridin-2-amine], the ED50 is reported as 0.01 mg/kg.
With `CCOCCn1c(NC2CCN(CCOc3ncccn3)CC2)nc2cccnc21` [Compound 133, 3-(2-ethoxyethyl)-N-[1-[2-(2-pyrimidinyloxy)ethyl]-4-piperidinyl]-3H-imidazo-[4,5-b]pyridin-2-amine] the ED50 was 0.02 mg/kg.
`CCOCCn1c(CC2CCN(CCOc3ncccn3)CC2)nc2cccnc21` [Compound 134, 3-(2-ethoxyethyl)-2-[[1-[2-(2-pyrimidinyloxy)ethyl]4-piperidinyl]methyl]-3H-imidazo-[4,5-b]pyridine] showed an ED50 of 0.005 mg/kg.
In the case of `CCOCCn1c(NC2CCN(CCNc3nc4cnccc4[nH]3)CC2)nc2cccnc21` [Compound 141, 3-(2-ethoxyethyl)-N-[1-[2-[(1H-imidazo[4,5-c]pyridin-2-yl)amino]ethyl]-4-piperidinyl]-3H-imidazo[4,5-b]pyridin-2-amine], the ED50 is reported as 0.02 mg/kg.
With `CCOCCn1c(NC2CCN(CCNC(=O)c3ccoc3)CC2)nc2cccnc21` [Compound 142, N-[2-[4-[[3-(2-ethoxyethyl)-3H-imidazo[4,5-b]pyridin-2-yl]amino]-1-piperidinyl]ethyl]-3-furancarboxamide] the ED50 was 0.04 mg/kg.
`CCOCCn1c(NC2CCN(CCNC(=O)c3cccn3C)CC2)nc2cccnc21` [Compound 143, N-[2-[4-[[3-(2-ethoxyethyl)-3H-imidazo[4,5-b]pyridin-2-yl]amino]-1-piperidinyl]ethyl]-1-methyl-1H-pyrrole-2-carboxamide] was tested, and the ED50 was 0.02 mg/kg.
`CCOCCn1c(CC2CCN(CCNC(=O)c3nccs3)CC2)nc2cccnc21` [Compound 144, N-[2-[4-[[3-(2-ethoxyetyyl)-3H-imidazo[4,5-b]pyridin-2-yl]methyl]-1-piperidinyl]ethyl]-2-thiazolecarboxamide] showed an ED50 of 0.02 mg/kg.
For `CCOCCn1c(NC2CCN(CCc3ccccn3)CC2)nc2cccnc21` [Compound 151, 3-(2-ethoxyethyl)-N-[1-[2-(2-pyridinyl)ethyl]-4-piperidinyl]-3H-imidazo-[4,5-b]pyridin-2-amine], the ED50 was 0.02 mg/kg.
Work on `CCOCCn1c(CC2CCN(CCc3ccccn3)CC2)nc2cccnc21` [Compound 152, 3-(2-ethoxyethyl)-2-[[1-[2-(2-pyridinyl)ethyl]-4-piperidinyl]methyl]-3H-imidazo-[4,5-b]pyridine] yielded an ED50 of 0.005 mg/kg.

Reference: US4943580A, “Anti-histaminic benzimidazole, imidazopyridine and purine derivatives” (Janssen Pharmaceutica N.V., priority 1989, dated 1990)
